According to ChEMBL document CHEMBL6134918, “Novel Indole and Pyrrolopyridine Derivatives as GPR17 Modulators for Treating Multiple Sclerosis” (ACS Med Chem Lett, 2025):
pIC50: −log10 of the molar value.

Molecular target: Uracil nucleotide/cysteinyl leukotriene receptor (Homo sapiens, UniProt Q13304)
Assay: Inhibition of full length GPR17 (unknown origin) stably expressed in human 1321N1 cells incubated for 15 mins by cAMP based HTRF assay
Assay type: functional, cell-based

Uracil nucleotide/cysteinyl leukotriene receptor, sequence (Q13304 whole entry): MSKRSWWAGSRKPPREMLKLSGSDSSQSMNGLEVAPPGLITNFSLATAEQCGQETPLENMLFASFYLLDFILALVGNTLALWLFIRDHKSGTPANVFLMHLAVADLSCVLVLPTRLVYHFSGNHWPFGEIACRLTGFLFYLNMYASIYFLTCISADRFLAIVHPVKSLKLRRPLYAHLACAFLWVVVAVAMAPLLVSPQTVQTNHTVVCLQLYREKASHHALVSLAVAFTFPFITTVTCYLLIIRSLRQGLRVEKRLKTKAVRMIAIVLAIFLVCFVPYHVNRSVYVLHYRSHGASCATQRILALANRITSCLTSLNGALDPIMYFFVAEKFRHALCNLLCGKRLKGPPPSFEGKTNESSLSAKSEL

Row | pIC50 | SMILES
1 | > 7.00 | N#Cc1c(NS(=O)(=O)c2c[nH]c3cc(Cl)ccc23)cnn1CCCl
2 | > 7.00 | N#Cc1c(NS(=O)(=O)c2c[nH]c3cc(Cl)ccc23)cnn1CCC(F)(F)F
3 | > 7.00 | Cc1snc(NS(=O)(=O)c2c[nH]c3cc(Cl)ccc23)c1Cl
4 | > 7.00 | CCCn1ncc(NS(=O)(=O)c2c[nH]c3cc(Cl)ccc23)c1C#N
5 | > 7.00 | Cc1onc(NS(=O)(=O)c2c[nH]c3cc(Cl)c(Cl)cc23)c1Cl
6 | > 7.00 | O=S(=O)(Nc1ncc(C(F)(F)F)s1)c1c[nH]c2cc(Cl)ccc12
